The target in assay [1] is human RAR-related orphan receptor alpha (hRORα) (Homo sapiens (Human), UniProt P35398). In words: RORα receptor-ligand competition binding assay. Conditions: His-tagged hRORα, [3H]-25-hydroxycholesterol; mean ± standard deviation; read-out: RORa Ki. As for the experimental part: (§1) His-tagged human RAR-related orphan receptor alpha (hRORα), human RAR-related orphan receptor beta (hRORβ), and human RAR-related orphan receptor gamma (hRORγ) are used for receptor-ligand competition binding assays to determine Ki values. Typical procedures are provided below.
(§2) The final wells contain 20 μg/mL aprotinin and 20 μg/mL leupeptin and 10 μM Pefabloc. Typically, receptor binding assays include radio-labeled ligands, such as 7 nM [^3H]-25-hydroxycholesterol for alpha binding, 20 nM [^3H]-3-[[4-[[3-(2,6-dichlorophenyl)-5-isopropyl-isoxazol-4-yl]methoxy]-N,2-dimethyl-anilino]methyl]benzoic acid for beta binding, and 6 nM [3H]-25-hydroxycholesterol for gamma binding, and 0.5 μg RORα receptor, 0.03 μg RORβ receptor, or 0.13 μg RORγ receptor per well. Assays are typically run in 96-well format. […] Plates are mixed for 30 minutes on an orbital shaker at room temperature. After an incubation of 4 hours, plates are read in a Wallac MICROBETA® counter.
(§3) The data are used to calculate an estimated IC50 using a four parameter logistic fit. The Kd for [^3H]-25-hydroxycholesterol for RORa and RORg, and [^3H]-3-[[4-[[3-(2,6-dichlorophenyl)-5-isopropyl-isoxazol-4-yl]methoxy]-N,2-dimethyl-anilino]methyl]benzoic acid for RORb binding, is determined by saturation binding. The IC50 values for compounds are converted to Ki using the Cheng-Prushoff equation.

Assay [2] relates to anti-CD3/anti-CD28/IL-23 stimulated IL-17 secretion in PBMC's. In words: PBMC IL-17 secretion ELISA. In kind it is cell-based. Conditions: Homo sapiens, anti-CD3/anti-CD28/IL-23 stimulation, 48 hours, mean ± standard deviation, read-out: hPBMC IL-17 ELISA (EC50). As for the experimental part: PBMC's are isolated from whole blood buffy coats by first combining fresh buffy coats with equal volumes of phosphate buffered saline. Thirty five mL of PBS/buffy coat solution are then gently overlaid onto 15 mL of Ficoll in 50 mL conical tubes. Following centrifugation for 30 minutes at 500×g (with slow acceleration and deceleration) the top layer of plasma is discarded and the layer of cells along the Ficoll interface is collected and pooled. Each 250 mL tube is filled to the top with room temperature RPMI-1640 media. Tubes are spun for 10 minutes at 500×G (with slow acceleration and deceleration), the media is removed by aspiration, and the wash step is repeated. Cells are resuspended in ice cold Recovery Cell Culture Freezing Medium from Life Technologies (Catalog number 12648-010) on ice. The cell concentration is adjusted to 66.7 million cells/mL. Cell are slow frozen at −1° C./minute in vials with 100 million cells and stored in liquid nitrogen.
PBMC are brought out of thaw by resuspending with 1 mL of complete media (RPMI-1640 containing 30 mM HEPES, 100 units/mL penicillin, 100 μg/mL streptomycin, 3.25 mM L-Glutamine, 0.2 μM beta-mercaptoethanol, and 10% FBS) followed by the drop wise addition of 2 mL, 4 mL, 8 mL, and 16 mL of complete media with gentle swirling. Cells are spun down for 5 minutes and the cell pellet is resuspended in complete media. Clumps of cells are broken up by running the cell solution through a 23 gauge syringe needle and a […] cell strainer. One hundred thousand cells per well are added to 384 well polystyrene tissue culture treated flat bottomed plates in a total of 30 μL. Stimulation cocktail containing anti-human CD3 antibody, anti-human CD28 antibody, IL-23 and compounds prepared in complete media are added to the cells simultaneously in a total volume of 30 μL. The final concentration of added stimulants is 160 ng/mL, 500 ng/mL, and 5 ng/mL for anti-CD3 antibody, anti-CD28 antibody, and IL-23 respectively and 0.3% for DMSO. Plates are sealed with AERASEAL® sealing film and incubated for 48 hours at 37° C., 95% humidity, and 5% CO2.
Following the incubation period, the plates are spun at 200×g for five minutes. Supernatants are diluted 1:1 with equal volume 1% BSA/PBS and tested for IL-17 with a human IL-17 ELISA kit from R&D system (catalog #D317E) according to the protocol provided with the kit with one exception—the colorimetric substrate OPD (o-phenylenediamine dihydrochloride, Sigma Cat #P6912) is used instead of the substrate supplied in the kit. Absorbance at 492 nm is measured with the Envision multi-label plate reader. A492 values are converted to concentration of IL-17 based on the IL-17 standard curve as shown below: pg/mL IL-17=EC50*[[(Top-Bottom)/(A492-Bottom)]-1](1/-Hill). IC50's for inhibition of IL-17 secretion is calculated based on converted values using a standard 4-parameter fit with maximum inhibition determined from the average values of wells with no added stimulants nor compounds and minimum inhibition from the average values of wells with stimulants alone and no added compound.

Assay [3] has as its target human RORg ligand binding domain fused to yeast GAL4 DNA binding domain (Homo sapiens (Human), UniProt P51449). In words: HEK293 RORg GAL4 receptor-reporter assay. In kind it is cell-based. The settings on record: HEK293 cells, RORg-GAL4/pGL4.31 luciferase, 18 hours; mean ± standard deviation; read-out: hIC50.
Assay [4] deals with human RAR-related orphan receptor gamma (hRORγ) (Homo sapiens (Human), UniProt P51449). The assay is described as follows: RORγ receptor-ligand competition binding assay. Conditions: His-tagged hRORγ, [3H]-25-hydroxycholesterol; mean ± standard deviation; read-out: RORg Ki. As for the experimental part:
as §1, §2, §3

In assay [5] the target is human RAR-related orphan receptor beta (hRORβ) (Homo sapiens (Human), UniProt Q92753). The assay is described as follows: RORβ receptor-ligand competition binding assay. The settings on record: His-tagged hRORβ; mean ± standard deviation; read-out: RORb Ki. As for the experimental part: as §1, §2, §3
In assay [6] the test system is PBMC. The assay is described as follows: cells. The assay is classed as cell-based. The settings on record: Homo sapiens, 48 h, read-out: Cell TiterGlo Viability (EC50, μM). As for the experimental part:
PBMC's are isolated from whole blood buffy coats by first combining fresh buffy coats with equal volumes of phosphate buffered saline. Thirty five mL of PBS/buffy coat solution are then gently overlaid onto 15 mL of Ficoll in 50 mL conical tubes. Following centrifugation for 30 minutes at 500×g (with slow acceleration and deceleration) the top layer of plasma is discarded and the layer of cells along the Ficoll interface is collected and pooled. […] Tubes are spun for 10 minutes at 500×G (with slow acceleration and deceleration), the media is removed by aspiration, and the wash step is repeated.
Cells are spun down for 5 minutes and the cell pellet is resuspended in complete media. Clumps of cells are broken up by running the cell solution through a 23 gauge syringe needle and a 40 μM cell strainer.
Equal volumes of Cell TITERGLO® cell viability testing reagent (Promega Cat #G7573) are added to the cells remaining in the plates, and following a fifteen minute incubation with gentle shaking at room temperature luminescence is measured with the Envision multi-label plate reader. Percent cell death is calculated by setting 100% activity (cell death) to zero luminescence units and minimum activity (max number of viable cells) as the average luminescence units of wells containing stimulants alone and no added compound. IC50's are calculated using a standard four parameter fit.

Some results are limits rather than exact numbers.

human RAR-related orphan receptor gamma (hRORγ), sequence (P51449 whole entry): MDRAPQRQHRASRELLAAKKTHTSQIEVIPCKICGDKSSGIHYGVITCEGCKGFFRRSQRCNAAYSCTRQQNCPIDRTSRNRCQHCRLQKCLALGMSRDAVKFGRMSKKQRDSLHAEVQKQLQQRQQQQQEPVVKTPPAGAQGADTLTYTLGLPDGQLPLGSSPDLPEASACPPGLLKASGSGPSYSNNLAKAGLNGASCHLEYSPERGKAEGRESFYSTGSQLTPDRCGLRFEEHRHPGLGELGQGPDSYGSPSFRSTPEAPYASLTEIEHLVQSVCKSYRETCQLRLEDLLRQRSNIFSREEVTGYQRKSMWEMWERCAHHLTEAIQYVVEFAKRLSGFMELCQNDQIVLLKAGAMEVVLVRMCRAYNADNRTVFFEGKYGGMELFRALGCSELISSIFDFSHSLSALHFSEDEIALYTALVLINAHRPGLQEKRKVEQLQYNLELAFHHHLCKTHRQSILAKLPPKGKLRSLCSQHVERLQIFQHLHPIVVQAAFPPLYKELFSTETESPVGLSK
human RAR-related orphan receptor beta (hRORβ), sequence (Q92753 whole entry): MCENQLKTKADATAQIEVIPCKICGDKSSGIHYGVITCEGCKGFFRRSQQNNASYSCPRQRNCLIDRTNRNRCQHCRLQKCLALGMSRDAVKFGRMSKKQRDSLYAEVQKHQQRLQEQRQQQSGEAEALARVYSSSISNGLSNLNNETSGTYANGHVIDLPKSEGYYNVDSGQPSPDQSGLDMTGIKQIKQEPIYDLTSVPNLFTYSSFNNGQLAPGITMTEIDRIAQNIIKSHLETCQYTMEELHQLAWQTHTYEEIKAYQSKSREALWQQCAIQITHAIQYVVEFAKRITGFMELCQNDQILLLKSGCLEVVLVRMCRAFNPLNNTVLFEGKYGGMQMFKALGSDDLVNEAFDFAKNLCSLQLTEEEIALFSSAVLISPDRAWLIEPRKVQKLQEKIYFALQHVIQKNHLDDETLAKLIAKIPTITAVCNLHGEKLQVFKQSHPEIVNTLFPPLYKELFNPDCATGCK
human RAR-related orphan receptor alpha (hRORα), sequence (P35398 whole entry): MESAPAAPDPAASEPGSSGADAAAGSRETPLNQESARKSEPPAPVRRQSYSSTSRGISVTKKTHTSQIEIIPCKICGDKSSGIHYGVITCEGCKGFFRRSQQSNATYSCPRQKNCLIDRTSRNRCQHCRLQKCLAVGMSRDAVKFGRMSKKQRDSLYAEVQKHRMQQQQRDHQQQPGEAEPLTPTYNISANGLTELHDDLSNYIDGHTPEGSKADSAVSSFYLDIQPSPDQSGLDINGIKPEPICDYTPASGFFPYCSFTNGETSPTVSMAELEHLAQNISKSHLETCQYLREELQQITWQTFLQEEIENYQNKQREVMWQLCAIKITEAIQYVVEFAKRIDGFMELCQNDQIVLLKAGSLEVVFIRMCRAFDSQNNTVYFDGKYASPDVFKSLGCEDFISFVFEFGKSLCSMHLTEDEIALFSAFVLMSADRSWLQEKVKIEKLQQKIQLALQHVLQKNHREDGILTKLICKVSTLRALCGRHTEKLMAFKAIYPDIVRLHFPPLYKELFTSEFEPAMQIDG
human RORg ligand binding domain fused to yeast GAL4 DNA binding domain, sequence (P51449 269-508): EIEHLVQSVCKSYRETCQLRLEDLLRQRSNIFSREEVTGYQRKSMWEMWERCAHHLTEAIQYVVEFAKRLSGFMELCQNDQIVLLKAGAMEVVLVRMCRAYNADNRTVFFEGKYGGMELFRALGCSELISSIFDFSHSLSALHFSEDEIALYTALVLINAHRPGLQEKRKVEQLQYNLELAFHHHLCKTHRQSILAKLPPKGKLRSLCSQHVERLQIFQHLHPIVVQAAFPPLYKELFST

On to `CCS(=O)(=O)c1ccc(CNC(=O)c2cc3c(s2)C2(CCN(C(C)c4ccc(C(F)(F)F)nc4)CC2)OC(C)C3)cc1` (single isomer, unassigned; isomer 2) [Example 42, N-[4-(Ethylsulfonyl)benzyl]-5′-methyl-1-{1-[6-(trifluoromethyl)pyridin-3-yl]ethyl}-4′,5′-dihydrospiro[piperidine-4,7′-thieno[2,3-c]pyran]-2′-carboxamide isomer 2], for which the Ki in assay [1] was greater than 20.4 µM; in assay [4] it was 0.00442 ± 0.0027 µM; in assay [5] it was greater than 12.5 µM. Further, the results for the EC50 in assay [2] and in assay [6] were 0.0083 ± 0.0038 µM and greater than 1 µM, respectively. Besides, the IC50 in assay [3] was determined as 0.0199 ± 0.0107 µM.
